According to patent publication US20100029654A1, “CARDIOVASCULAR COMPOSITIONS AND USE OF THE SAME FOR THE TREATMENT OF ALZHEIMER'S DISEASE” (MOUNT SINAI SCHOOL OF MEDICINE, priority 2006, published 2010):
Structures can show the parent of a compound that is named as a salt. Where two headings read alike, the source gives them in different places.

How the values were obtained:
[1] = test system: primary cortico-hippocampal neuron cultures; test: lactate dehydrogenase (LDH) activity assay in parallel neuron cultures
Procedure: For in vitro treatments drugs available from “The Spectrum Collection” in stocks of 10 mM in DMSO were applied directly to cultures to the desired concentrations (final 1% DMSO); control primary neuron cultures from Tg2576 embryos were treated with vehicle resulting in a final 1% DMSO.
Cell viability was assessed using a commercial available LDH assay kit according to the manufacture's instruction (Promega).

[2] = test system: primary cortico-hippocampal neuron cultures; test: MTT in primary screening
Aβ1-40 = Aβ1-40 content in conditioned medium of primary cortico-hippocampal neuron cultures from Tg2576 mice (ELISA; primary and secondary dose-response screening); format: cell-based, mouse; conditions: for activity at 100 µM: Mus musculus, Neuron, 24 h, read-out: Ab1-40 (% of ctl); for activity at 100 µM / Ab1-40 (% of ctl): drug 100 μM; for reduced Aβ1-40: <85% of ctl
Procedure: (§1) Potential Aβ-lowering activity was assessed for 150 commercially available cardiovascular drugs using primary cortico-hippocampal neuron cultures derived from embryonic Tg2576 (El 6). […] All cardiovascular reagents were obtained from MicroSource Discovery Systems Inc (Gaylordsville, Conn.). […] Individual cardiovascular agents were applied directly to the culture medium (final 1% DMSO in the culture media). In control studies, parallel Tg2576 primary neuron cultures were treated with vehicle (1% DMSO) alone. The influence of drug treatments in Aβ content in the conditioned medium in treated cultures was assessed by assessing steady state levels of Aβ1-40 and Aβ1-42 in the culture media 24 hours after treatment.
(§2) Embryonic brain tissue was mechanically triturated and centrifuged. Neurons were seeded onto poly-D-lysine-coated 96-well plates at 1.0×10^5 cells per well and cultured in the serum-free chemically-defined medium Neurobasal, supplemented with 2% B27, 0.5 mM L-glutamine and 1% penicillin-streptomycin (Gibco-BRL).
(§3) For primary screening, cultured neurons were treated with 100 μM of drug in duplicates for 16 hours; all drugs were obtained in stock from MicroSource Discovery Systems Inc (Gaylordsville, Conn.). Conditioned medium was collected for Aβ detection using commercially available ELISA kits (BioSource). […] Primary neurons prepared in 96-well plates were treated with 0.1 μM, 1 μM, 10 μM, 50 μM, and 100 μM of each drug in duplicate for ˜16 hours and conditioned medium was collected for Aβ detection.

Aβ1-42 = Aβ1-42 content in conditioned medium of primary cortico-hippocampal neuron cultures from Tg2576 mice (ELISA; primary and secondary dose-response screening); format: cell-based, mouse; conditions: for activity at 100 µM: Mus musculus, Neuron, 24 h, read-out: Ab1-42 (% of ctl); for activity at 100 µM / Ab1-42 (% of ctl): drug 100 μM; for reducing Aβ1-42: <85% of ctl
Procedure: as §1, §2, §3

[3] = Primary Screening, table sorted by Aβ1-40
[4] = primary screening, table sorted by Aβ1-42
[5] = primary screening, Tg2576 neuron cultures, table sorted by Aβ1-42

| LDH (% of ctl) [1, 3] | LDH (% of ctl) [1, 4] | MTT (% of ctl) [2, 3] | MTT (% of ctl) [2, 4] | Structure (SMILES) | activity at 100 µM (Aβ1-40; [3]) [%] | activity at 100 µM (Aβ1-40; [5]) [%] | activity at 100 µM (Aβ1-42; [3]) [%] | activity at 100 µM (Aβ1-42; [5]) [%] | reducing Aβ1-42 (Aβ1-42; primary screening) | Ab1-40 (% of ctl) (Aβ1-40; [3]) | reduced Aβ1-40 (Aβ1-40; primary screening) | Ab1-40 (% of ctl) (Aβ1-40; [5]) | Ab1-42 (% of ctl) (Aβ1-42; [3]) | Ab1-42 (% of ctl) (Aβ1-42; [5]) |
| --- | --- | --- | --- | --- | --- | --- | --- | --- | --- | --- | --- | --- | --- | --- |
| 102.2 % of ctl | 102.2 % of ctl | 103.6 % of ctl | 103.6 % of ctl | CC[C@H]1CN2CC[C@H]1C[C@@H]2[C@@H](O)c1ccnc2ccc(OC)cc12 [Hydroquinidine] | 96.5 | 96.5 | 121 | 121 |  |  |  |  |  |  |
| 140.0 % of ctl | 140.0 % of ctl | 97.5 % of ctl | 97.5 % of ctl | CC(C)OC(=O)C(C)(C)Oc1ccc(C(=O)c2ccc(Cl)cc2)cc1 [Fenofibrate] | 13.9 | 13.9 | 77.7 | 77.7 |  |  |  |  |  |  |
| 112.5 % of ctl | 112.5 % of ctl | 97.5 % of ctl | 97.5 % of ctl | c1ccc(CC2=NCCN2)cc1 [Tolazoline Hydrochloride] | 90.8 | 90.8 | 99.6 | 99.6 |  |  |  |  |  |  |
| 357.1 % of ctl | 357.1 % of ctl | 97.2 % of ctl | 97.2 % of ctl | CCCC(=O)Nc1ncnc2c1ncn2[C@@H]1O[C@@H]2COP(=O)(O)O[C@H]2[C@H]1OC(=O)CCC [Bucladesine] | 85.3 | 85.3 | 69.9 | 69.9 | useful in reducing Aβ1-42 |  |  |  |  |  |
| 99.4 % of ctl | 99.4 % of ctl | 98.4 % of ctl | 98.4 % of ctl | CC(C)c1c(C(=O)Nc2ccccc2)c(-c2ccccc2)c(-c2ccc(F)cc2)n1CC[C@@H](O)C[C@@H](O)CC(=O)[O-].CC(C)c1c(C(=O)Nc2ccccc2)c(-c2ccccc2)c(-c2ccc(F)cc2)n1CC[C@@H](O)C[C@@H](O)CC(=O)[O-].[Ca+2] [Atorvastatin Calcium] |  |  |  |  | useful in reducing Aβ1-42 | 66.0 % of ctl | reduced Aβ1-40 | 66.0 % of ctl | 76.9 % of ctl | 76.9 % of ctl |
| 95.4 % of ctl | 95.4 % of ctl | 91.8 % of ctl | 91.8 % of ctl | COc1cc2nc(N(C)CCCNC(=O)C3CCCO3)nc(N)c2cc1OC (stereo not drawn) [Alfluzosin] |  |  |  |  | useful in reducing Aβ1-42 | 122.7 % of ctl |  | 122.7 % of ctl | 66.9 % of ctl | 66.9 % of ctl |
| 103.4 % of ctl | 103.4 % of ctl | 95.6 % of ctl | 95.6 % of ctl | Cc1cccc(C)c1OCC(C)N (stereo not drawn) [Mexiletine Hydrochloride] | 91.3 | 91.3 | 115 | 115 |  |  |  |  |  |  |
| 109.0 % of ctl | 109.0 % of ctl | 99.7 % of ctl | 99.7 % of ctl | C=CCSCC1Nc2cc(Cl)c(S(N)(=O)=O)cc2S(=O)(=O)N1 (stereo not drawn) [Althiazide] | 74.4 | 74.4 | 65.4 | 65.4 | useful in reducing Aβ1-42 |  | reduced Aβ1-40 |  |  |  |
| 1065.9 % of ctl | 1065.9 % of ctl | 7.2 % of ctl | 7.2 % of ctl | C1CCC(C(CC2CCCCN2)C2CCCCC2)CC1 (stereo not drawn) [Perhexiline Maleate] | 4.8 | 4.8 | 26.2 | 26.2 | useful in reducing Aβ1-42 |  | reduced Aβ1-40 |  |  |  |
| 1127.4 % of ctl | 1127.4 % of ctl | 15.0 % of ctl | 15.0 % of ctl | CCOC(=O)[N-]c1cn(N2CCOCC2)n[o+]1 [Molsidomine] | 118 | 118 | 121 | 121 |  |  |  |  |  |  |
| 111.1 % of ctl | 111.1 % of ctl | 96.8 % of ctl | 96.8 % of ctl | CCN(CC)CCNC(=O)c1ccc(N)cc1 [Procainamide Hydrochloride] | 118 | 118 | 109 | 109 |  |  |  |  |  |  |

More lines, now with the values behind:

| Structure (SMILES) | LDH (% of ctl) [1, 3] | LDH (% of ctl) [1, 4] | MTT (% of ctl) [2, 3] | MTT (% of ctl) [2, 4] | activity at 100 µM (Aβ1-40; [3]) [%] | activity at 100 µM (Aβ1-40; [5]) [%] | activity at 100 µM (Aβ1-42; [3]) [%] | activity at 100 µM (Aβ1-42; [5]) [%] | reducing Aβ1-42 (Aβ1-42; primary screening) | Ab1-40 (% of ctl) (Aβ1-40; [3]) | reduced Aβ1-40 (Aβ1-40; primary screening) | Ab1-40 (% of ctl) (Aβ1-40; [5]) | Ab1-42 (% of ctl) (Aβ1-42; [3]) | Ab1-42 (% of ctl) (Aβ1-42; [5]) |
| --- | --- | --- | --- | --- | --- | --- | --- | --- | --- | --- | --- | --- | --- | --- |
| CCCc1nc2c(C)cc(-c3nc4ccccc4n3C)cc2n1Cc1ccc(-c2ccccc2C(=O)O)cc1 [Telmisartan] | 111.3 % of ctl | 111.3 % of ctl | 109.4 % of ctl | 109.4 % of ctl | 91.1 | 91.1 | 112 | 112 |  |  |  |  |  |  |
| CC(=O)Nc1nnc(S(N)(=O)=O)s1 [Acetazolamide] | 173.5 % of ctl | 173.5 % of ctl | 78.0 % of ctl | 78.0 % of ctl | 115 | 115 | 118 | 118 |  |  |  |  |  |  |
| COc1ccc(C2C(=O)c3ccccc3C2=O)cc1 [Anisindione] | 148.9 % of ctl | 148.9 % of ctl | 110.7 % of ctl | 110.7 % of ctl | 90.1 | 90.1 | 103 | 103 |  |  |  |  |  |  |
| Nc1nc(N)c2nc(-c3ccccc3)c(N)nc2n1 [Triamterene] | 103.3 % of ctl | 103.3 % of ctl | 93.8 % of ctl | 93.8 % of ctl | 85.1 | 85.1 | 64.2 | 64.2 | useful in reducing Aβ1-42 |  |  |  |  |  |
| COc1ccc2c(c1OC)C(=O)O[C@H]2[C@@H]1c2cc3c(cc2CCN1C)OCO3 [1S,9R-Beta-HYDRASTINE] | 114.2 % of ctl | 114.2 % of ctl | 101.1 % of ctl | 101.1 % of ctl |  |  |  |  |  | 114.5 % of ctl |  | 114.5 % of ctl | 123.6 % of ctl | 123.6 % of ctl |
| CCOC(=O)NNc1nncc2ccccc12 [Todralazine Hydrochloride] | 100.6 % of ctl | 100.6 % of ctl | 99.5 % of ctl | 99.5 % of ctl | 105 | 105 | 110 | 110 |  |  |  |  |  |  |
| CC(=O)CCCCn1c(=O)c2c(ncn2C)n(C)c1=O [Pentoxifylline] | 132.4 % of ctl | 132.4 % of ctl | 91.1 % of ctl | 91.1 % of ctl | 97.1 | 97.1 | 109 | 109 |  |  |  |  |  |  |
